Earlier results as cited in patent US20100330171A1, “Dietary Supplement for Eye Health” (priority 2008, published 2010).

What was measured:
tube formation = details: Matigel-induced tube formation assay
VEGFR-2 = VEGFR-2 (Homo sapiens, UniProt P35968); details: serum concentrations 0.01-1 microM
[1] = tested on: human umbilical vein endothelial cells (HUVEC)
[2] = tested on: phosophoinositide-dependent protein kinase, Akt, apoptosis signal-regulating kinase, p38; details: fibroblast growth factor-treated HUVEC
bovine endothelial cells = details: in vitro, bovine endothelial cells stimulated by FGF-2
[3] = tested on: human colon cancer cell line; details: by blocking the induction of VEGF
[4] = compared with ascorbic acid (vitamin C) and tocopherol (vitamin E)
angiogenesis = details: chick chorioallantoic membrane assay
leukocyte elastase = molecular target: T1, leukocyte elastase (Homo sapiens, UniProt P08246)
T1 sequence (P08246 30-267): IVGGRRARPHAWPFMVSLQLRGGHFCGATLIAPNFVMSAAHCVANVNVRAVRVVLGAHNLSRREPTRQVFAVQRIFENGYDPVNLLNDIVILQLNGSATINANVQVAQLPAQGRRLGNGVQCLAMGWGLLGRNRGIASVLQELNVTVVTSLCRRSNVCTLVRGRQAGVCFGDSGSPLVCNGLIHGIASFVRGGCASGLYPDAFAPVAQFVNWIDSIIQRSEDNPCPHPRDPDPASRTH

MMP-9 = MMP-9 (Homo sapiens, UniProt P14780)
MMP-9, sequence (P14780 94-707, species assumed): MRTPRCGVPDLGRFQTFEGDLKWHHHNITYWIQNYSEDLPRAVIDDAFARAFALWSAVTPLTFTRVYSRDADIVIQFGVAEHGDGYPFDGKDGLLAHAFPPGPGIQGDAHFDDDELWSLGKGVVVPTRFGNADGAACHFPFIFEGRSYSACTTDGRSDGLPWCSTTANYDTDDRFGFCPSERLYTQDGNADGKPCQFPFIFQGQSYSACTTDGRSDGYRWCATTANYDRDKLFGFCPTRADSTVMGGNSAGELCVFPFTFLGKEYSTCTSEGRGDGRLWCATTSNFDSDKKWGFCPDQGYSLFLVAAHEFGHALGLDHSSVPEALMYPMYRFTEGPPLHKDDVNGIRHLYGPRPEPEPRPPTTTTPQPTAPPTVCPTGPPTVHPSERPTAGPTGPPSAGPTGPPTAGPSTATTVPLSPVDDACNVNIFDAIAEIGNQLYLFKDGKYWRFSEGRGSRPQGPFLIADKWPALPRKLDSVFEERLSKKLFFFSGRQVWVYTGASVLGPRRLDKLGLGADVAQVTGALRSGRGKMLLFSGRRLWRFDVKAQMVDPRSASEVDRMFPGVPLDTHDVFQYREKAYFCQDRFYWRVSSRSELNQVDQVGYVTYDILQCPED

VEGFR-2, sequence (P35968 20-1356, species assumed): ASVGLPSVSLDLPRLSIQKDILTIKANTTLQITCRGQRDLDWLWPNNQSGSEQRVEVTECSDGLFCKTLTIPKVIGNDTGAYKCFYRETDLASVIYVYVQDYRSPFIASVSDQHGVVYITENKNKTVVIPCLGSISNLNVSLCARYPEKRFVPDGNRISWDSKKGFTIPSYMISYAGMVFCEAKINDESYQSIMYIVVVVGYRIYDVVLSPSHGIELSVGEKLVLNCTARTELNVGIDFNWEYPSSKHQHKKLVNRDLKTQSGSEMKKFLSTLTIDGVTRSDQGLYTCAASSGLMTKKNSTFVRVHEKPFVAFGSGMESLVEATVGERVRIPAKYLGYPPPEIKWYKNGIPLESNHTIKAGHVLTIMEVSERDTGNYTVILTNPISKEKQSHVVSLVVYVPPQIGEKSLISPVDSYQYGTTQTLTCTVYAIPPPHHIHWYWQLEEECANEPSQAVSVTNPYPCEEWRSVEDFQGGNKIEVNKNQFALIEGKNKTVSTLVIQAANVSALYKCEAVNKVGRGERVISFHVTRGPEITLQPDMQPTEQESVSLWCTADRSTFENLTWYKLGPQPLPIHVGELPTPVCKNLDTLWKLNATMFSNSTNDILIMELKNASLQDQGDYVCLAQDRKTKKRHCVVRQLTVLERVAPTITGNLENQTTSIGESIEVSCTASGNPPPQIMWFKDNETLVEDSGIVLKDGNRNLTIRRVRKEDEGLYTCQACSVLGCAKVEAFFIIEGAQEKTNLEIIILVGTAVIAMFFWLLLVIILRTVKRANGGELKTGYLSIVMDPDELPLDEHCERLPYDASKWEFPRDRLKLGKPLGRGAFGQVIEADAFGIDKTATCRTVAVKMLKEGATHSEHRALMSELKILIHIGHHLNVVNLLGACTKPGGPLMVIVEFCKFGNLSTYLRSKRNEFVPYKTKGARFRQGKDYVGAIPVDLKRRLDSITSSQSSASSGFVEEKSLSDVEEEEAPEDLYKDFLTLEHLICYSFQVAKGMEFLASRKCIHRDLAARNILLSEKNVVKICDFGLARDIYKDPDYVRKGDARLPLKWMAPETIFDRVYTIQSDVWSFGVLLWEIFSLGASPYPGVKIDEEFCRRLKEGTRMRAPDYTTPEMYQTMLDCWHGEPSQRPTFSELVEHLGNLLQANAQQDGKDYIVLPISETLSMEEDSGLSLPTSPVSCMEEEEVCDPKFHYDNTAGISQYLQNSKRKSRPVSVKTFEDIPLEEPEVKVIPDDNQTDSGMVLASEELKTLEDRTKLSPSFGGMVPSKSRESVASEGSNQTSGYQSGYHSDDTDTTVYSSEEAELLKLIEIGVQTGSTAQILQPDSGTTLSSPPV

| Compound | tube formation (tube formation) | inhibition of VEGF-dependent phosphorylation of VEGFR-2 (VEGFR-2) | suppression of fibroblast growth factor-induced proliferation, migration and tube formation [1] | phosphorylation of apoptosis signal-regulating kinase and p38 [2] | phosphorylation of phosophoinositide-dependent protein kinase and Akt [2] | gene expression of TNF-alpha and the cytokines IL-1 beta and IL-10 induced by TNF-alpha (TNF-alpha) | endothelial cell growth (bovine endothelial cells) | microvessel density [3] | quenching reactive oxygen species [4] | formation of new blood vessels (angiogenesis) | inhibition of leukocyte elastase (leukocyte elastase) | inhibition of MMP-9 (MMP-9) |
| --- | --- | --- | --- | --- | --- | --- | --- | --- | --- | --- | --- | --- |
| O=C(O[C@@H]1Cc2c(O)cc(O)cc2O[C@H]1c1ccc(O)c(O)c1)c1cc(O)c(O)c(O)c1 [CG, catechin-3 gallate] | almost completely abolished | inhibit | – | – | – | – | – | – | – | – | – | – |
| CC(C)=CCC/C(C)=C/CC/C(C)=C/CC[C@]1(C)CCc2cc(O)c(C)c(C)c2O1 [γ-tocotrienol] | – | – | highest activity | increasing | suppressing | – | – | – | – | – | – | – |
| Epigallocatechin-3-gallate [EGCG] | almost completely abolished | inhibit | – | – | – | block | suppress | reduces | more effective | block | inhibit | inhibits |
